Key:
[1] = system: potted plants each having green leaves and violet colored flowers; experiment: Plant growth retarder: potted plant watered (Example 8); type: in vivo; settings: watered with water with 10% sodium benzoate, after three days
Excerpt: Two similar potted plants each having green leaves and violet colored flowers were obtained for this example. One of the potted plants was watered with tap water and at the same time the other potted plant was watered with water that contained a 10% concentration of sodium benzoate.

mold [2] = experiment: Mold on cornstarch immersed in solution (Example 3); type: cell-based; settings: cornstarch in water with 1% sodium benzoate, four weeks
[3] = system: psychrotrophic microorganisms; experiment: Count of psychrotrophic microorganisms in minced cod fish fillets stored at 1-2° C. (Plate Count Agar, pour-plate); type: cell-based; set-up: Count of psychrotrophic microorganisms in sample with 0.1% Sodium Benzoate solution: unit not given here; settings: for Count of psychrotrophic microorganisms in sample with 1% Sodium Benzoate solution: Example 11; for Count of psychrotrophic microorganisms in sample with 0.1% Sodium Benzoate solution: Example 12
Description: Cod fish fillets which were frozen at sea were thawed and minced. The minced fillets were divided into two 200 gram portions. To one portion, 20 milliliters of sterile, deionized water was added (10%) and to the other 20 milliliters of the sodium benzoate solution of this invention containing 1% benzoate was added. Both portions were stirred and then placed at 1-2° C. for storage. Samples were taken 2 hours, 7 days and 14 days after mixing. Counts of psychrothrophic microorganisms was done on Plate Count Agar with 0.5% NaCl added by the pour-plate technique. Plated were incubated at 22° C. for 3 days prior to counting colonies. When a nutrient agar-type medium is incubated, using the streak-plate or pour-plate method, cells are individually separated. In incubation, individual cells reproduce rapidly to generate a visible colony of cells, each colony being a pure sample of a single kind of microorganism.
In the above example, a 1% sodium benzoate solution was used, which is considered to be a stronger than acceptable for a food product, and thus a further tests were performed. In these second tests cod fish fillets which were frozen at sea were thawed and minced. The minced fillets were divided into two 200 gram portions. To one portion, 2 milliliters of sterile, deionized water was added and to the other […] of the sodium benzoate solution of this invention containing 0.1% benzoate was added. As a result in this test the other portion contained only 10% of the amount of benzoate as was in EXAMPLE 11. In other words EXAMPLE 11 was a 1% sodium benzoate solution and EXAMPLE 12 is a 0.1% sodium benzoate solution. Both portions were stirred and then placed at 1-2° C. for storage. Samples were taken 2 hours, 7 days, 14 days and 18 after mixing. Counts of psychrothrophic microorganisms was done on Plate Count Agar with 0.5% NaCI added by the pour-plate technique. Plated were incubated at 22° C. for 3 days prior to counting colonies.

[4] = Iron count of applicant after daily drinking of the solution; type: in vivo, human; settings: daily drinking of 0.1% solution blended in fruit juice
Excerpt: Furthermore, as a result of the higher conductivity of the sodium benzoate solution its electrical resistance is reduced which stabilizes organic colors and prevents their reversion. […] Also, in the pulp and paper industry the brightness of pulp is enhanced which is a result of applicant's solution impeding the deposition of iron. Also, impeding the iron content in drinking water can help to prevent an iron overload problem in humans and animals. Iron overload can result in cellular degradation that is similar to the rusting of a nail. Applicant's sodium benzoate solution can be used to prevent oxygen free radical degradation in humans and animals. Excess iron in human is very dangerous. Human consumption of applicant's solution could prevent hemochromatosis and the need for phlebotomy.

mold [5] = experiment: Mold and odor on treated wet lap pulp (Example 5); type: cell-based; settings: wet lap pulp treated with water with 1% sodium benzoate, almost a year
Excerpt: A like portion of wet lap pulp from the same batch as the above wet lap pulp was not treated (wet lap pulp is moist and contains tap water) but was isolated for observation and comparison.

mold [6] = experiment: Mold in opened cranberry-raspberry drink (Example 6); type: cell-based; settings: drink with about 1.9% sodium benzoate, three weeks
Description: A commercially available 16 ounce bottle of cranberry-raspberry drink was opened and one ounce of water having a 30% concentrations of sodium benzoate was added to the contents of the bottle. The resulting cranberry-raspberry drink thus had about a 1.9% concentration of sodium benzoate. A second bottle of the same commercially available drink was opened but not treated in any way.

grass = experiment: Plant growth retarder: patch of grass sprayed (Example 9); type: in vivo; settings: sprayed with water with 10% by weight sodium benzoate, 24 hours
Excerpt: A patch of grass about two feet in diameter was sprayed with water having a 10% concentration by weight of sodium benzoate . At the time that the water having the 10% concentration of sodium benzoate was sprayed on this patch of grass the sprayed patch as well as the surrounding grass areas were green and healthy looking.

[7] = Electrical conductivity of tap water with varying concentrations of sodium benzoate; type: physicochemical; settings: 10% sodium benzoate plus ingredient that improves adhesion
Description: Tests were conducted to measure the electrical conductivity of tap water with varying concentrations of sodium benzoate. In these tests the conductivity has been measured in micromho/cm. One micromho/cm (UMHO/CM) equals one microsiemens/cm (US/CM). In other words a micromho is the same as a microsiemen.
In preparing a 1% solution of applicants solution 37.84 grams of sodium benzoate were dissolved in one gallon of tap water which weighs 3,784 grams. […] The conductivity of the various samples of applicant's invention that were subjected to these tests had conductivities ranging from 635 to 34,500 UMHO/CM. […] For solutions of other strengths, proportional amounts of sodium benzoate were added to a gallon of water. This invention is concerned with concentrations of sodium benzoate in the range of about 0.1% and greater. The current test results have been limited to a maximum concentration of about 10%.

[8] = system: growing plant having green leaves and small white flowers; experiment: Plant growth retarder: isolated growing plant sprayed (Example 7); type: in vivo; settings: sprayed with water with 10% sodium benzoate, after six hours
Excerpt: A growing plant having green leaves and small white flowers was isolated from other plants of the same type. the isolated plant was sprayed with water having a 10% concentration of sodium benzoate. The other plants were not treated.

[9] = system: large potted plants having green leaves and red flowers; experiment: Plant growth retarder: large potted plants watered (Example 10); type: in vivo; settings: watered with water with 10% by weight sodium benzoate
Excerpt: Three large potted plants having green leaves and red flowers, each plant was about 3 feet tall, were utilized for this EXAMPLE. The three plants were aligned adjacent to each other in a sunny area. The large potted plant to the left was watered with tap water and the plants in the center and to the right were watered with water having a 10% concentration by weight of sodium benzoate. Two days after watering these three large potted plants, the plant to the left retained its green leaves and red flowers. However, the large plant in the center and the one to the right had undergone change. […] Four days after watering the plants the large plant in the center and the one to the right had undergone further change. […] The plant to the left retained its green leaves and red flowers.

mold [10] = experiment: Mold on dry dog food sprayed with solution (Example 4); type: cell-based; settings: dry dog food sprayed with water with 1% sodium benzoate, three months
[11] = 0 days at 1-2° Centigrade (sample 2 hours after mixing)

For `O=C([O-])c1ccccc1.[Na+]` [Sodium Benzoate, sodium benzoate], the “Growth Stunned” value [1] was “weathered and dried up”, the “No Mold” value (mold [2]) was “no evidence of mold” and the “Shelf life of fresh seafood maintained at 1-2° C.” value ([3]; 0.1% sodium benzoate solution) was “at least 14 days”. The “Shelf life of fresh seafood maintained at 1-2° C.” value ([3]; 1% sodium benzoate solution) was “at least 14 days”, the “Count of psychrotrophic microorganisms in sample with 1% Sodium Benzoate solution” value (“Count … with 1% Sodium Benzoate solution” for short) [3, 11] was 5 and the “Count … with 1% Sodium Benzoate solution” value ([3]; 7 days at 1-2° Centigrade) was 4.8. For the same molecule, the “Count … with 1% Sodium Benzoate solution” value ([3]; 14 days at 1-2° Centigrade) was 5.2, the “Count of psychrotrophic microorganisms in sample with 0.1% Sodium Benzoate solution” value (shortened to “Count … with 0.1% Sodium Benzoate solution”) [3, 11] was 4.21 and the “Count … with 0.1% Sodium Benzoate solution” value ([3]; 7 days at 1-2° Centigrade) was 4.79. For the same molecule, the “Count … with 0.1% Sodium Benzoate solution” value ([3]; 14 days at 1-2° Centigrade) was 6.17, the “Count … with 0.1% Sodium Benzoate solution” value ([3]; 18 days at 1-2° Centigrade) was 8.09 and the Iron count [4] was “reduced to normal levels”. The “No Mold” value (mold [5]) was “no evidence of mold or odor”, the “No Mold” value (mold [6]) was “no evidence of mold” and the “Growth Stunned” value (grass) was “appeared straw like and there was no longer any green appearing”. For the same molecule, the “Conductivity of 10% solution with coating additive compared with 10% solution without” value [7] was “substantially the same”, the “Growth Stunned” value [8] was “shriveled and dried up” and the “Growth Stunned” value ([9]; four days after watering) was “remains of the flowers were now brown and only a few brown leaves remained on the branches”. For the same molecule, the Appearance of plants ([9]; two days after watering) was “flowers were no longer red and instead appeared pink and white and the leaves were drooping and were a much lighter shade of green” and the “No Mold” value (mold [10]) was “no evidence of mold”.

Source: US20040151618A1, “Method of increasing the conductivity of water and uses therefor” (priority 2002, published 2004)
